Experimental data taken from patent US6645983B1, “Pharmaceutical compositions comprising 4-quinolones for treating cancers” (Laboratoire L. Lafon, priority 1999, dated 2003).
Like-named read-outs stand apart in the source and are kept apart here.

How the values were obtained:
[1] = tested on: A-427; test: MTT test, cytotoxic activity on non-clonogenic cell lines; assay type: cell-based; conditions: Homo sapiens, 10^−5 M, mean value
Summary of the method: (§1)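 Human cancer lines seeded at 20 000–50 000 cells/ml, allowed 24 h to attach, then exposed to compounds at 10^−5 to 10^−10 M versus solvent control.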

[2] = tested on: U-87MG; test: as above; assay type: cell-based; conditions: Homo sapiens, 10^−5 M, mean value
Summary of the method: as §1

[3] = tested on: T-47D; test: as above; assay type: cell-based; conditions: Homo sapiens, T47D, 10^−5 M, mean value
Summary of the method: as §1

[4] = tested on: U-373MG; test: as above; assay type: cell-based; conditions: Homo sapiens, U373 MG, 10^−5 M, mean value
Summary of the method: as §1

[5] = tested on: LoVo; test: as above; assay type: cell-based; conditions: Homo sapiens, 10^−5 M, mean value
Summary of the method: as §1

[6] = tested on: A549; test: as above; assay type: cell-based; conditions: Homo sapiens, 10^−5 M, mean value
Summary of the method: as §1

[7] = tested on: MCF7; test: as above; assay type: cell-based; conditions: Homo sapiens, 10^−5 M, mean value
Summary of the method: as §1

[8] = tested on: PC-3; test: as above; assay type: cell-based; conditions: Homo sapiens, 10^−5 M, mean value
Summary of the method: as §1

[9] = tested on: HCT-15; test: as above; assay type: cell-based; conditions: Homo sapiens, mean value
Summary of the method: as §1

[10] = tested on: T24; test: as above; assay type: cell-based; conditions: Homo sapiens, T-24, 10^−5 M, mean value
Summary of the method: (§2)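 Human bladder cancer lines were seeded at 20 000–50 000 cells/ml and, after 24 h, exposed to compounds at 10^−5 to 10^−10 M against a solvent control. Formazan was dissolved in DMSO and viability was read by spectrophotometric optical density.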

[11] = tested on: J82; test: as above; assay type: cell-based; conditions: Homo sapiens, 10^−5 M, mean value
Summary of the method: as §2

[12] = Determination of the maximum tolerated dose (MTD); conditions: B6D2F1/Jico, mouse, in vivo, ip; single intraperitoneal administration, doses 2.5 to 160 mg/kg, survival over 14 days
Summary of the method: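 Mice were 4- to 6-week-old B6D2F1/Jico. They received a single intraperitoneal dose of 2.5 to 160 mg/kg, and survival and body weight were followed for 14 days. MTD is given in mg/kg and is capped at 160 mg/kg by default.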

[13] = tested on: SW1088; test: MTT test, cytotoxic activity on non-clonogenic cell lines; assay type: cell-based; conditions: Homo sapiens, 10^−5 M, mean value
Summary of the method: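 Human astrocytoma SW1088 cells seeded, grown 24 h at 37° C, 5% CO2, then exposed to compounds at 10^−5 to 10^−10 M versus solvent control. Viability by MTT reduction: 3 h MTT incubation, formazan dissolved in DMSO and read by spectrophotometry.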

[14] = 72 hours of incubation, control condition = 100%, read-out: mean optical density as percentage of control, A-427
[15] = U-87 MG, 72 hours of incubation, control condition = 100%, read-out: mean optical density as percentage of control, U-87MG
[16] = 72 hours of incubation, control condition = 100%, read-out: mean optical density as percentage of control, T-47D
[17] = 72 hours of incubation, control condition = 100%, read-out: mean optical density as percentage of control, U-373MG
[18] = 72 hours of incubation, control condition = 100%, read-out: mean optical density as percentage of control, LoVo
[19] = 72 hours of incubation, control condition = 100%, read-out: mean optical density as percentage of control, A549
[20] = 72 hours of incubation, control condition = 100%, read-out: mean optical density as percentage of control, MCF7
[21] = 72 hours of incubation, control condition = 100%, read-out: mean optical density as percentage of control, PC-3
[22] = 10^−5 M, 72 hours of incubation, control condition = 100%, read-out: mean optical density as percentage of control, HCT-16
[23] = 72 hours of incubation, control condition = 100%, read-out: mean optical density as percentage of control, T24
[24] = 72 hours of incubation, control condition = 100%, read-out: mean optical density as percentage of control, J82
[25] = 72 hours of incubation, control condition = 100%, read-out: mean optical density as percentage of control, SW1088
[26] = 72 hours incubation, MTT, read-out: mean optical density, expressed as percentage relative to the mean optical density under the control condition (100%)
[27] = U-87MG, 72 hours incubation, MTT, read-out: mean optical density, expressed as percentage relative to the mean optical density under the control condition (100%)
[28] = T-47D, 72 hours incubation, MTT, read-out: mean optical density, expressed as percentage relative to the mean optical density under the control condition (100%)
[29] = U-373MG, 72 hours incubation, MTT, read-out: mean optical density, expressed as percentage relative to the mean optical density under the control condition (100%)
[30] = HCT-16, 10^−5 M, 72 hours incubation, MTT, read-out: mean optical density, expressed as percentage relative to the mean optical density under the control condition (100%)
[31] = T24, 72 hours incubation, MTT, read-out: mean optical density, expressed as percentage relative to the mean optical density under the control condition (100%)

Structure (SMILES) | viability at 10 µM [1, 14] [%] | viability at 10 µM [2, 15] [%] | viability at 10 µM [3, 16] [%] | viability at 10 µM [4, 17] [%] | viability at 10 µM [5, 18] [%] | viability at 10 µM [6, 19] [%] | viability at 10 µM [7, 20] [%] | viability at 10 µM [8, 21] [%] | viability at 10 µM [9, 22] [%] | viability at 10 µM [10, 23] [%] | viability at 10 µM [11, 24] [%] | MTD at 14 day [12] [mg/kg] | viability at 10 µM [13, 25] [%] | viability at 10 µM [1, 26] [%] | viability at 10 µM [2, 27] [%] | viability at 10 µM [3, 28] [%] | viability at 10 µM [4, 29] [%] | viability at 10 µM [5, 26] [%] | viability at 10 µM [6, 26] [%] | viability at 10 µM [7, 26] [%] | further results
COc1ccc(-c2cn(CC#N)c3c(OC)ccc(OC)c3c2=O)cc1 [CRL8413, [5,8-Dimethoxy-3-(4-methoxyphenyl)-4-oxo-1,4-dihydro-1-quinolinyl]acetonitrile] | 73.3 | 56 | 112 | 66.4 | 85.6 | 48.7 | 67.2 | 63.4 | 65.9 | 71.8 | 88.4 | > 160 | 83.7 | – | – | – | – | – | – | – | –
CCc1ccc(OC)c2c1c(=O)c(-c1ccc(OC)cc1)cn2C [CRL8414, 5-Ethyl-8-methoxy-3-(4-methoxyphenyl)-1-methyl-1,4-dihydro-4-quinolinone] | 82.2 | 81.2 | 96.2 | 81.7 | 84.2 | 71.8 | 104 | 94.3 | 83.4 | 97.5 | 110 | > 160 | 94.4 | – | – | – | – | – | – | – | –
COc1ccc(-c2cn(CCCC#N)c3cc(OC)cc(OC)c3c2=O)cc1 [CRL8420, 4-[5,7-Dimethoxy-3-(4-methoxyphenyl)-4-oxo-1,4-dihydro-1-quinolinyl]butanenitrile] | 102 | 92.9 | 104 | 96.6 | 81.2 | 94.5 | 103 | 86 | 109 | 111 | 92.3 | > 160 | 117 | – | – | – | – | – | – | – | –
COc1ccc(-c2cn(C)c3cc(OC)cc(NCc4ccccc4)c3c2=O)cc1 [CRL8424, 5-Benzylamino-7-methoxy-3-(4-methoxyphenyl)-1-methyl-1,4-dihydro-4-quinolinone] | 72.7 | 87.9 | 108 | 82.5 | 69.8 | 111 | 95.4 | 108 | 49.8 | 102 | 77.9 | > 160 | 82.7 | – | – | – | – | – | – | – | –
COc1ccc(-c2cn(C)c3cc(OC)cc(N4CCCCC4)c3c2=O)cc1 [CRL8425, 7-Methoxy-3-(4-methoxyphenyl)-1-methyl-5-piperidino-1,4-dihydro-4-quinolinone] | 81.9 | 92.6 | 97.3 | 82.6 | 71 | 80.2 | 102 | 88.2 | 78.9 | 98.2 | 71.9 | > 160 | 85.4 | – | – | – | – | – | – | – | –
COc1ccc(-c2cn(C)c3cc(OC)cc(N4CCCC4)c3c2=O)cc1 [CRL8434, 7-Methoxy-3-(4-methoxyphenyl)-1-methyl-5-pyrrolidino-1,4-dihydro-4-quinolinone] | 110 | 89.7 | 85.8 | 92.2 | 106 | 99 | 96.2 | 113 | 101 | 98.7 | 99.3 | > 160 | 99.9 | – | – | – | – | – | – | – | –
COc1ccc(-c2cn(C)c3cc(OC)cc(N4CCOCC4)c3c2=O)cc1 [CRL8435, 7-Methoxy-3-(4-methoxyphenyl)-1-methyl-5-morpholino-1,4-dihydro-4-quinolinone] | 115 | 85 | 95.7 | 85 | 106 | 96.7 | 93.6 | 105 | 101 | 89.4 | 100 | > 160 | 97.3 | – | – | – | – | – | – | – | –
COc1ccc(-c2cn(C)c3cc(OC)cc(N4CCN(C)CC4)c3c2=O)cc1 [CRL8436, 7-Methoxy-3-(4-methoxyphenyl)-1-methyl-5-(1-methyl-piperazino)-1,4-dihydro-4-quinolinone] | – | – | – | – | – | – | – | – | – | – | – | > 160 | – | 109 | 97.3 | 89.4 | 97.2 | 108 | 101 | 96.4 | viability at 10 µM [8, 26]: 99.9%; viability at 10 µM [9, 30]: 101%; viability at 10 µM [10, 31]: 99.2%; viability at 10 µM [11, 26]: 101%; viability at 10 µM [13, 26]: 102%
CCN(CC)c1cc(OC)cc2c1c(=O)c(-c1ccc(OC)cc1)cn2C [CRL8437, 5-Diethylamino-7-methoxy-3-(4-methoxyphenyl)-1-methyl-1,4-dihydro-4-quinolinone] | – | – | – | – | – | – | – | – | – | – | – | > 160 | – | 108 | 99.4 | 92.1 | 93.2 | 105 | 102 | 97.7 | viability at 10 µM [8, 26]: 94.1%; viability at 10 µM [9, 30]: 110%; viability at 10 µM [10, 31]: 93.1%; viability at 10 µM [11, 26]: 98.7%; viability at 10 µM [13, 26]: 99.7%
CC(=O)Oc1ccc(-c2cn(C)c3c(OC(C)=O)ccc(OC(C)=O)c3c2=O)cc1 [CRL8460, 5,8-Diacetoxy-3-[4-(acetoxy)phenyl]-1-methyl-1,4-dihydro-4-quinolmone acetate] | – | – | – | – | – | – | – | – | – | – | – | > 160 | – | 24.9 | 71.5 | 56.2 | 52.2 | 25.5 | 43.1 | 35 | viability at 10 µM [8, 26]: 35.2%; viability at 10 µM [9, 30]: 53.7%; viability at 10 µM [10, 31]: 14.2%; viability at 10 µM [11, 26]: 45.7%; viability at 10 µM [13, 26]: 65.7%
COc1ccc(-c2cn(C)c3cc(OC)cc(N)c3c2=O)cc1 [CRL8461, 5-Amino-7-methoxy-3-(4-methoxyphenyl)-1-methyl-1,4-dihydro-4-quinolinone] | – | – | – | – | – | – | – | – | – | – | – | > 160 | – | 90.5 | 77.2 | 51.9 | 91.6 | 92.7 | 99.7 | 68.2 | viability at 10 µM [8, 26]: 91.9%; viability at 10 µM [9, 30]: 88.5%; viability at 10 µM [10, 31]: 107%; viability at 10 µM [11, 26]: 94.9%; viability at 10 µM [13, 26]: 91.9%
